Laboratory results as given in patent US20120129212A1, “METHOD OF MONITORING ERYTHROPOIESIS” (VERTEX PHARMACEUTICALS INCORPORATED, priority 2009, published 2012).

Tested on: erythropoiesis (nascent erythrocytes)
Test: Cobalt chloride-induced erythropoiesis in eGFP mice (FACS of erythrocyte eGFP fluorescence)
Type: in vivo, hemizygous BALB/c mice
Details: for effect on erythropoiesis (right-shift of eGFP fluorescence curves): subcutaneous injection, six mice
Method: Mice were anesthetized with isofluorane and a minute incision was made into the lateral tail vein. Approximately 1 μl of tail vein blood was diluted into 0.5 ml of sterile saline containing 3 mM EDTA and stored at 4° C. Fluorescence activated cell sorting (FACS) was performed within 6 hours of blood collection on a FACSAria (BD Biosciences, San Jose, Calif.) flow cytometer. A 488 nm laser was used to excite the eGFP and a 530/30 nm band-pass filter and a 502 nm long-pass filter were used to monitor emissions. Forward and side scatter were used to gate for single erythrocytes, with approximately one hundred thousand events measured per blood sample. Median Fluorescence Intensity (MFI) for each erythrocyte population was analyzed using FlowJo 7.2.5 software (Tree Star, Inc. Ashland, Oreg.).
Tail vein blood (1 μl) was collected daily from one-year old hemizygous BALB/c mice starting on the day before cobalt chloride treatment (Day −1) and continuing through three days after treatment (Day 3) as described in Example 1, On Day 0, six one-year old BALB/c (hemizygous) mice were subcutaneously injected with 0.1 mL saline containing 4 μmols of cobalt chloride. FACS was performed immediately following the blood draw, and data were analyzed with FlowJo software as described in Example 1.

[Cl][Co][Cl] [cobalt chloride]
increase in the number of nascent erythrocytes (4 μmols cobalt chloride s.c. on Day 0, Day 2 vs Day −1, statistically significant): 10 fold
effect on erythropoiesis (right-shift of eGFP fluorescence curves): stimulates erythropoiesis in vivo
effect on erythropoiesis (right-shift of eGFP fluorescence curves) (listed as Cobalt chloride): stimulated erythropoiesis in each of the six mice tested
